These compounds were tested against T1, human H-PGDS (Homo sapiens, UniProt O60760) (assay: H-PGDS RapidFire high throughput mass spectrometry assay). Conditions: inhibition of conversion of PGH2 to PGD2 by H-PGDS; mean pIC50; read-out: Potency Range (mean pIC50) (converted).
T1 construct: Full length human H-PGDS cDNA (Invitrogen Ultimate ORF IOH13026) was amplified by PCR; 6-His (N); TEV protease cleavage site (N); made in house; host or cells: E. coli BL21 (DE3*) for H-PGDS; Sf9 insect cells (baculovirus) for COX-2
Format: biochemical
Procedure: H-PGDS RapidFire™ High Throughput Mass Spectrometry Assay
The H-PGDS RapidFire™ mass spectrometric assay monitors conversion of prostaglandin H2 (PGH2) to prostaglandin D2 (PGD2) by haematopoietic prostaglandin D synthase (H-PGDS). In the assay format described here, the substrate (PGH2) is formed in situ by the action of cyclooxygenase-2 on arachidonic acid. This first step is set up to be fast, and generates a burst of PGH2 at ˜10 μM. The PGH2 is then further converted to PGD2 by the H-PGDS enzyme. […] Plates are then read on the RapidFire™ high throughput solid phase extraction system (Agilent) which incorporates a solid phase extraction step coupled to a triple quadrupole mass spectrometer (AB SCIEX). Relative levels of PGD2 and PGF2α, which acts as a surrogate for substrate, are measured and a percent conversion calculated. Inhibitors are characterised as compounds which lower the conversion of PGH2 to PGD2.
Full length human H-PGDS cDNA (Invitrogen Ultimate ORF IOH13026) was amplified by PCR with the addition of a 5′ 6-His tag and TEV protease cleavage site. The PCR product was digested with NdeI and XhoI and ligated into pET22b+ (Merck Novagen®). Expression was carried out in E. coli strain BL21 (DE3*) using auto-induction Overnight Express™ Instant TB medium (Merck Novagen®) supplemented with 1% glycerol. The culture was first grown at 37° C. and the temperature was reduced to 25° C. when OD600 reached 2.0. Cells were harvested by centrifugation after a further 18 hours. 10 g of E. coli cell pellet was suspended to a total volume of 80 mL in lysis buffer (20 mM Tris-Cl pH 7.5, 300 mM NaCl, 20 mM imidazole, 5 mM p-mercaptoethanol, 10% glycerol). 1 mg/mL protease inhibitors (Protease Inhibitor Cocktail Set III, Merck Calbiochem®) and 1 mg/mL lysozyme were added to the cell suspension. The suspension was then sonicated for 5 min (UltraSonic Processor VCX 750, Cole-Parmer Instrument Co.) with a micro probe (50% amplitude, 10 sec on/off) and then centrifuged at 100,000 g for 90 minutes (at 4° C.). The supernatant was loaded onto a Ni-NTA HiTrap column (5 mL, GE Healthcare, pre-equilibrated in lysis buffer). The column was washed with 10 column volumes of lysis buffer and eluted with lysis buffer containing 500 mM imidazole. The pooled protein peak fractions were concentrated using a 10 kDa centrifugal filter at 3500 g and 4° C. (Amicon Ultra-15 centrifugal filter unit with Ultracel-10 membrane from Millipore). Further purification of the concentrated protein was carried out using gel filtration chromatography on a HiLoad 26/600 Superdex 75 preparative grade column (GE Healthcare Life Sciences) using 50 mM Tris pH 7.5, 50 mM NaCl, 1 mM dithiothreitol, 1 mM MgCl2. Fractions containing the protein were pooled, concentrated as described above, and stored at −80° C.
The full length human COX-2 gene (accession number L15326) was amplified by PCR to generate an EcoRI—HindIII fragment containing an in-frame FLAG tag. This was subcloned into pFastBac 1 (Invitrogen). The COX-2 FLAG plasmid was recombined into the baculovirus genome according to the BAC-to-BAC protocol described by Invitrogen. Transfection into Spodoptera frugiperda (Sf9) insect cells was performed using Cellfectin (Invitrogen), according to the manufacturer's protocol. Super Sf9 cells were cultured in EX420 media (SAFC Biosciences) to a density of approximately 1.5×10^6 cells/mL within a wave bioreactor. Recombinant virus was added at a Multiplicity of Infection (MOI) of 5 and the culture was allowed to continue for 3 days. Cells were harvested using a continuous feed centrifuge run at 2500 g at a rate of approximately 2 L/min with cooling. The resultant cell slurry was re-centrifuged in pots (2500 g, 20 min, 4° C.) and the cell paste was stored at −80° C. […]

T1 sequence (O60760 whole entry): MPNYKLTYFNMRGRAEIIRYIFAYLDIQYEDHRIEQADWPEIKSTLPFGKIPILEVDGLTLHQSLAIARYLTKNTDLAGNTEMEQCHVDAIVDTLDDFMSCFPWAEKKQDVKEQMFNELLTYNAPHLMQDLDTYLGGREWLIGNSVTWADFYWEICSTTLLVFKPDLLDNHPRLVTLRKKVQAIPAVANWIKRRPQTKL

Row | SMILES | IC50
1 | CC1(C)CC(NC(=O)c2cnc(-c3cc(F)cc(Cl)c3)[se]2)C(=O)N1 (racemic) [Example 82, Racemic 2-(3-Chloro-5-fluorophenyl)-N-(5,5-dimethyl-2-oxopyrrolidin-3-yl)-1,3-selenazole-5-carboxamide] | 10.2 to 100 nM
2 | O=C(N[C@H]1C(=O)N[C@H]2CCC[C@H]21)c1cnc(-c2cc(F)cc(Cl)c2)s1 [Example 59, 2-(3-Chloro-5-fluorophenyl)-N-((3R,3aR,6aS)-2-oxooctahydrocyclopenta[b]pyrrol-3-yl)thiazole-5-carboxamide] | 102 to 1000 nM
3 | Cc1nc(-c2cccc(Cl)c2)sc1C(=O)N[C@H]1CCNC1=O [Example 30, (S)-2-(3-Chlorophenyl)-4-methyl-N-(2-oxopyrrolidin-3-yl)thiazole-5-carboxamide] | 10.2 to 100 nM
4 | O=C(N[C@H]1CCNC1=O)c1cnc(-c2ccccc2)s1 [Example 33, (S)-N-(2-Oxopyrrolidin-3-yl)-2-phenylthiazole-5-carboxamide] | 10.2 to 100 nM
5 | O=C(NC1CC2(CC2)NC1=O)c1cnc(-c2cc(F)cc(Cl)c2)s1 (racemic) [Example 20, Racemic 2-(3-Chloro-5-fluorophenyl)-N-(5-oxo-4-azaspiro[2.4]heptan-6-Yl)thiazole-5-carboxamide] | 10.2 to 100 nM
6 | N#Cc1cccc(-c2ncc(C(=O)N[C@H]3CCNC3=O)s2)c1 [Example 43, (S)-2-(3-Cyanophenyl)-N-(2-oxopyrrolidin-3-yl)thiazole-5-carboxamide] | 102 to 1000 nM
7 | O=C(N[C@H]1CCNC1=O)c1cnc(-c2cc(Cl)cc(Cl)c2)s1 [Example 9, (S)-2-(3,5-Dichlorophenyl)-N-(2-oxopyrrolidin-3-yl)thiazole-5-carboxamide] | 1.02 to 10 nM
8 | O=C1NCC[C@@H]1NC(=S)c1cnc(-c2cc(F)cc(Cl)c2)s1 [Example 80, (S)-2-(3-chloro-5-fluorophenyl)-N-(2-oxopyrrolidin-3-yl)thiazole-5-carbothioamide] | 1.02 to 10 nM
9 | C[C@H]1[C@H](NC(=O)c2cnc(-c3cc(F)cc(Cl)c3)s2)C(=O)N[C@@H]1C [Example 36, 2-(3-Chloro-5-fluorophenyl)-N-((3S,4R,5R)-4,5-dimethyl-2-oxopyrrolidin-3-yl)thiazole-5-carboxamide] | 10.2 to 100 nM
10 | CC1(C)C[C@H](NC(=O)c2cnc(-c3cc(F)cc(Cl)c3)s2)C(=S)N1 [Example 85, (S)-2-(3-Chloro-5-fluorophenyl)-N-(5,5-dimethyl-2-thioxopyrrolidin-3-yl)thiazole-5-carboxamide] | 1.02 to 10 nM
11 | CN(C(=O)c1cnc(-c2cc(F)cc(Cl)c2)s1)[C@@H]1CCNC1=O [Example 67, (R)-2-(3-Chloro-5-fluorophenyl)-N-methyl-N-(2-oxopyrrolidin-3-yl)thiazole-5-carboxamide] | > 10000 nM
12 | O=C(N[C@H]1CC2(CCC2)NC1=O)c1cnc(-c2cc(F)cc(Cl)c2)s1 [Example 29, (S)-2-(3-Chloro-5-fluorophenyl)-N-(6-oxo-5-azaspiro[3.4]octan-7-yl)thiazole-5-carboxamide] | 1.02 to 10 nM
13 | CC1(C)C[C@@H](NC(=O)c2cnc(-c3cc(F)cc(Cl)c3)s2)C(=O)N1 (single isomer, unassigned) [Example 15] | 102 to 1000 nM
14 | O=C(N[C@H]1CCNC1=O)c1cnc(-c2cccc(C(F)F)c2)s1 [Example 10, (S)-2-(3-(Difluoromethyl)phenyl)-N-(2-oxopyrrolidin-3-yl)thiazole-5-carboxamide] | 10.2 to 100 nM
15 | O=C(N[C@@H]1CCNC1=O)c1cnc(-c2cc(F)cc(Cl)c2)s1 [Example 26, (R)-2-(3-Chloro-5-fluorophenyl)-N-(2-oxopyrrolidin-3-yl)thiazole-5-carboxamide] | 102 to 1000 nM
16 | CC1(C)CC(NC(=O)c2cnc(-c3cc(F)cc(C(F)F)c3)s2)C(=O)N1 (racemic) [Example 18, Racemic 2-(3-(Difluoromethyl)-5-fluorophenyl)-N-(5,5-dimethyl-2-oxopyrrolidin-3-yl)thiazole-5-carboxamide] | 10.2 to 100 nM
17 | O=C(N[C@H]1CCNC1=O)c1cnc(-c2ccccn2)s1 [Example 39, (S)-N-(2-Oxopyrrolidin-3-yl)-2-(pyridin-2-yl)thiazole-5-carboxamide] | 102 to 1000 nM
18 | O=C(N[C@H]1C(=O)N[C@@H]2COC[C@@H]21)c1cnc(-c2cc(F)cc(Cl)c2)s1 [Example 54, 2-(3-Chloro-5-fluorophenyl)-N-((3R,3aS,6aS)-2-oxohexahydro-1H-furo[3,4-b]pyrrol-3-yl)thiazole-5-carboxamide] | 10.2 to 100 nM
19 | O=C(N[C@H]1CCNC1=O)c1cnc(-c2cccc3ccoc23)s1 [Example 1, (S)-2-(Benzofuran-7-yl)-N-(2-oxopyrrolidin-3-yl)thiazole-5-carboxamide] | 10.2 to 100 nM
20 | CN(C(=O)c1cnc(-c2cc(F)cc(Cl)c2)s1)C1CCNC1=O (racemic) [Example 65, Racemic 2-(3-Chloro-5-fluorophenyl)-N-methyl-N-(2-oxopyrrolidin-3-yl)thiazole-5-carboxamide] | 1020 to 10000 nM
21 | O=C(N[C@@H]1CC2(CC2)NC1=O)c1cnc(-c2cc(F)cc(Cl)c2)s1 [Example 22, (R)-2-(3-Chloro-5-fluorophenyl)-N-(5-oxo-4-azaspiro[2.4]heptan-6-yl)thiazole-5-carboxamide] | 102 to 1000 nM
22 | Cc1cccc(-c2ncc(C(=O)N[C@H]3CCNC3=O)s2)c1 [Example 5, (S)-N-(2-Oxopyrrolidin-3-yl)-2-(m-tolyl)thiazole-5-carboxamide] | 1.02 to 10 nM
23 | O=C(N[C@@H]1C(=O)N[C@H]2CCC[C@H]21)c1cnc(-c2cc(F)cc(Cl)c2)s1 [Example 51, 2-(3-Chloro-5-fluorophenyl)-N-((3S,3aR,6aS)-2-oxooctahydrocyclopenta[b]pyrrol-3-yl)thiazole-5-carboxamide] | 1.02 to 10 nM
24 | O=C(N[C@H]1CCNC1=O)c1cnc(-c2cccc(Cl)c2F)s1 [Example 8, (S)-2-(3-Chloro-2-fluorophenyl)-N-(2-oxopyrrolidin-3-yl)thiazole-5-carboxamide] | 10.2 to 100 nM
25 | Cc1cccc(-c2ncc(C(=O)N[C@H]3CCNC3=O)s2)n1 [Example 46, (S)-2-(6-Methylpyridin-2-yl)-N-(2-oxopyrrolidin-3-yl)thiazole-5-carboxamide] | 102 to 1000 nM
26 | O=C(NC1CCNC1=O)c1cnc(-c2cccc(Cl)c2)s1 (racemic) [Example 2, Racemic 2-(3-Chlorophenyl)-N-(2-oxopyrrolidin-3-yl)thiazole-5-carboxamide] | 10.2 to 100 nM
27 | O=C(N[C@@H]1C(=O)N[C@@H]2CCC[C@H]12)c1cnc(-c2cc(F)cc(Cl)c2)s1 [Example 60, 2-(3-Chloro-5-fluorophenyl)-N-((3S,3aS,6aR)-2-oxooctahydrocyclopenta[b]pyrrol-3-yl)thiazole-5-carboxamide] | 10.2 to 100 nM
28 | C[C@H]1[C@H](C)NC(=O)[C@@H]1NC(=O)c1cnc(-c2cc(F)cc(Cl)c2)s1 (racemic) [Example 34, Racemic 2-(3-Chloro-5-fluorophenyl)-N-((3R,4S,5S)-4,5-dimethyl-2-oxopyrrolidin-3-yl)thiazole-5-carboxamide; and 2-(3-Chloro-5-fluorophenyl)-N-((3S,4R,5R)-4,5-dimethyl-2-oxopyrrolidin-3-yl)thiazole-5-carboxamide] | 10.2 to 100 nM

Source: patent publication US20220009918A1, “Chemical Compounds” (GlaxoSmithKline Intellectual Property Development Limited, priority 2018, published 2022)
